pKd: −log10 of the molar value. Where “and” joins values, the source holds several entries; their conditions need not be identical. Equal values may be shown once. Calls of active or inactive are those of the source. The rule behind the calls is not given here.

Consider 74 compounds from PubChem BioAssay AID1033 (Sanford-Burnham Center for Chemical Genomics, 2008).

Chain of Chaperone protein DnaK (Escherichia coli (strain K12)) (P0A6Y8 whole entry, looked up, the tested form may be a part): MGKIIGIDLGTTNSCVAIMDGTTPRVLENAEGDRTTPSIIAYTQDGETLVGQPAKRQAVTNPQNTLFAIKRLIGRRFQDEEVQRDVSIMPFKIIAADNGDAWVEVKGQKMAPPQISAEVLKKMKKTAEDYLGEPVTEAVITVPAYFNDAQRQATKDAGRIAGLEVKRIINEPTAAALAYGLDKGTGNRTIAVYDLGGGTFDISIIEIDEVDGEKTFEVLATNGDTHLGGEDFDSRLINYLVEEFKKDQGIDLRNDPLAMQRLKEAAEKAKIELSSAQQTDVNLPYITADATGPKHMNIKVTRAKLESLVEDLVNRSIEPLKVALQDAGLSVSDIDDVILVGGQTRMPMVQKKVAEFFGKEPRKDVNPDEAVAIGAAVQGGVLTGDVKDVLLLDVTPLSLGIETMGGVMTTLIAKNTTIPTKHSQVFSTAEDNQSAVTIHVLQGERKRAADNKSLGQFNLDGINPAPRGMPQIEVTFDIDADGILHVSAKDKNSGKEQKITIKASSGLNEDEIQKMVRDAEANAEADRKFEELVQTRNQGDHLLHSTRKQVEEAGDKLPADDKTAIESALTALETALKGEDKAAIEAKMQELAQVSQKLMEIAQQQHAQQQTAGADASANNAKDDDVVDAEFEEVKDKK

The test has as its target Chaperone protein DnaK (Escherichia coli (strain K12)) (UniProt P0A6Y8). The test can be described thus: binders of DnaK substrate-binding domain, biophysical, NMR, chaperone (AID 1033). The following applies: Purified DnaK SBD, NMR ligand binding.
A word on the Kd: it is the free concentration of one partner at which half of the binding sites on the other are occupied at equilibrium, for simple one-to-one binding. On to `CCOCC(=O)NCc1n[nH]c(=O)c2ccccc12`, for which the Kd was > 4 mM (inactive). On the same count and under the same terms, to `OCc1ccc(N2CCOCC2)nc1` belongs > 4 mM (inactive); to `NC(=O)c1cccc2c1OCCO2`, > 4 mM (inactive). Still for that read-out and setting: to `CCC(C)C(=O)O[C@H]1[C@H](O)C2C(CN3CC(C)CCC3[C@@]2(C)O)C2C[C@]34O[C@]5(O)C(OC(=O)C(C)(O)CC)CC[C@@]3(C)C5C(OC(C)=O)[C@@H](OC(C)=O)C4[C@@]21O` (some centres undefined) belongs > 4 mM (inactive); to `NC(=NCCC[C@H](N)C(=O)O)NC(CCC(=O)O)C(=O)O` (some centres undefined), > 4 mM (inactive). On the same count and under the same terms, to `Cc1cc(=O)[nH]c(NCc2cccnc2)n1` belongs > 4 mM (inactive); to `Cn1[nH]c2nc3[nH]n(C)c(=O)c3c(-c3ccccc3)c2c1=O`, > 4 mM (inactive); to `CC1=C2C(=CO[C@H](C)[C@H]2C)C(=O)C(C(=O)O)=C1O`, > 4 mM (inactive). For the compound `Cc1cc(C)n(C2CCS(=O)(=O)C2)n1` (centres undefined), the Kd was > 4 mM (inactive). In the case of `COc1cc(OC)cc(-c2nc(N)n[nH]2)c1`, the Kd is > 4 mM (inactive).

Turning to `CCOC(=O)CNC(=O)CSc1nnc(C)c(=O)[nH]1`, the Kd is > 4 mM (inactive). On the same count and under the same terms, in the case of `O=C(O)CN(CCCc1ccccc1)CC(=O)O` it was > 4 mM (inactive); in that of `O=C(O)Cn1cc(C(=O)c2cccs2)c2ccccc21`, > 4 mM (inactive). The same measure, in the same setting: in the case of `CN1CCC(NC(=O)c2cnccn2)CC1` it was > 4 mM (inactive). On to `CN(C)C(=S)Nc1ccc([N+](=O)[O-])cc1`, for which the Kd is > 4 mM (inactive). The same measure, in the same setting: in the case of `CN(C)c1ccc(C2CC(=O)CC(=O)C2)cc1` it was > 4 mM (inactive); in that of `c1ccc(-c2n[nH]c(-c3ccccn3)n2)nc1`, > 4 mM (inactive); in that of `[O-][n+]1c2ccccc2[n+]([O-])c2cc(O)ccc21`, > 4 mM (inactive). The same measure, in the same setting: to `CC(=O)c1c(C)nc(C)nc1NC(=O)C(C)C` belongs > 4 mM (inactive); to `NC(=O)Cn1nc2c3c(cccc3c1=O)-c1ccccc1-2`, > 4 mM (inactive); to `CC(C)(C)c1ccc(SCC(N)=O)cc1`, > 4 mM (inactive). Regarding `O=c1[nH]cnc2nn(-c3ccccc3)nc12`, the Kd was > 4 mM (inactive). `COC(=O)c1cccnc1Oc1ccccc1`: the Kd is > 4 mM (inactive). The term pKd denotes the Kd on a negative log10 scale, so that one unit is a factor of ten. `O=C(Nc1ncc2ccccc2n1)c1cccs1`: the negative-log Kd (pKd) was over 3.70.

`O=[N+]([O-])c1ccc2c(c1)N([O-])C1(CCCCC1)[N+]2=O`: the Kd is > 4 mM (inactive).

For `O=c1oc2ccccc2cc1O`, the Kd is > 4 mM (inactive). For the compound `Cc1ccc(-c2nc(-c3cccnc3)no2)c(C)c1`, the Kd is > 4 mM (inactive).

`CC(C)(C(N)=O)/[N+]([O-])=C\c1ccccc1`: the Kd was > 4 mM (inactive).

For the compound `CN1CCN(CC(=O)Nc2ccccc2)CC1`, the Kd was > 4 mM (inactive). Same read-out and setting: to `Nc1nc2ccc(S(N)(=O)=O)cc2s1` belongs > 4 mM (inactive); to `CCOC(=O)c1csc(C2COc3ccccc3O2)n1` (centres undefined), > 4 mM (inactive). Still for that read-out and setting: in the case of `O=C(O)CCC(=O)c1c[nH]c2ccccc12` it was > 4 mM (inactive); in that of `CCOC(=O)C1CN(C)CCN1C` (centres undefined), > 4 mM (inactive); in that of `O=c1[nH]cc(S(=O)(=O)N2CCc3ccccc32)c(=O)[nH]1`, > 4 mM (inactive). The same measure, in the same setting: in the case of `O=C(O)c1[nH]nc2c1COc1ccccc1-2` it was > 4 mM (inactive); in that of `NC(=O)c1ccsc1NC(=O)c1ccccc1[N+](=O)[O-]`, > 4 mM (inactive); in that of `O=C1CSC(=Nc2ccccc2)N1`, > 4 mM (inactive). Turning to `COc1ccc2c(=O)c(OC)c(-c3ccccc3)oc2c1`, the Kd was > 4 mM (inactive).

On to `O=C1c2ccccc2C(=O)c2c1ccc(O)c2O`, for which the Kd was > 4 mM (inactive). As to `CC(=O)O[C@H]1C[C@@]2(C)[C@@H](C[C@@H](O)C3[C@]2(C)CC[C@H]2[C@H](C)[C@H](O)CC[C@]32C)/C1=C(/CCC=C(C)C)C(=O)O` (some centres undefined), the Kd is > 4 mM (inactive). Regarding `O=C(NCc1ccccc1F)c1cccs1`, the negative-log Kd (pKd) is 3.80 and > 3.70. For `C=CC(C1=CC(=O)C=CC1=O)c1ccccc1` (centres undefined), the Kd is > 4 mM (inactive). Consider `COc1cc2c(c(OC)c1OC)-c1ccc(OC)c(=O)cc1[C@@H](NC(C)=O)CC2`, for which the Kd was > 4 mM (inactive). On the same count and under the same terms, to `Cc1ccc2[nH]c3nc(=S)[nH]nc3c2c1` belongs > 4 mM (inactive); to `CC1(c2ccncc2)NC(=O)NC1=O` (centres undefined), > 4 mM (inactive). Regarding `O=C(Nc1ccc(N2CCCC2=O)cc1)c1cccc(F)c1`, the Kd is > 4 mM (inactive). Same read-out and setting: to `CC1(C)Cc2cccc(C(=O)O)c2O1` belongs > 4 mM (inactive).

For the compound `CN1CCN(c2ncnc3nc[nH]c23)CC1`, the Kd was > 4 mM (inactive). On the same count and under the same terms, in the case of `O=C(Nc1ccon1)c1cccc(C(F)(F)F)c1` it was > 4 mM (inactive); in that of `COc1cc2nc[nH]c(=O)c2cc1OC`, > 4 mM (inactive); in that of `O=C(O)CNc1ncnc2nc[nH]c12`, > 4 mM (inactive). Regarding `CN1CCC(N(C)C2CCN(C)CC2)CC1`, the Kd is > 4 mM (inactive). On to `N#Cc1cc2ccccc2nc1N`, for which the Kd is > 4 mM (inactive).

In the case of `COc1cc2c(cc1OC)Cc1cc(OC)c(OC)cc1Cc1cc(OC)c(OC)cc1C2`, the Kd was > 4 mM (inactive). `COc1ccc2[nH]cc(CN(C)C)c2c1`: the Kd is > 4 mM (inactive). On the same count and under the same terms, in the case of `Cc1ccc(NC(=O)c2ccccc2)s1` it was > 4 mM (inactive); in that of `Cc1cc(C)n2nc(C(=O)NCc3ccco3)nc2n1`, > 4 mM (inactive). Same read-out and setting: to `COC(CC(=O)O)c1nc2ccccc2s1` (centres undefined) belongs > 4 mM (inactive); to `Nc1ccc(CN2CCOCC2)cc1`, > 4 mM (inactive); to `CCCC(=O)N1CCSCC1`, > 4 mM (inactive). Same read-out and setting: to `COC(=O)c1cc2cc(N)ccc2s1` belongs > 4 mM (inactive). With `CC(=O)Nc1cnn(Cc2ccc(Br)cc2)c1`, the Kd is > 4 mM (inactive). Still for that read-out and setting: to `O=C(O)c1ccccc1C(=O)NCC1CCCO1` (centres undefined) belongs > 4 mM (inactive); to `O=S(=O)(c1cccc(Cl)c1)N1CCCC1`, > 4 mM (inactive). For `NCc1nnnn1-c1ccccc1`, the Kd was > 4 mM (inactive). The same measure, in the same setting: in the case of `Oc1cc(O)c2c(c1)O[C@H](c1ccc(O)c(O)c1)[C@H](O)C2` it was > 4 mM (inactive); in that of `O=C1NC(=S)S/C1=C/c1ccncc1`, > 4 mM (inactive). On the same count and under the same terms, in the case of `Cn1nc(C(=O)Nc2cccnc2)c2ccccc2c1=O` it was > 4 mM (inactive); in that of `CC(=O)Nc1ccc(S(=O)(=O)NCC2CCCO2)cc1` (centres undefined), > 4 mM (inactive); in that of `NC(=O)C1CCN(Cc2ccccc2)CC1`, > 4 mM (inactive). Still for that read-out and setting: in the case of `NC(=O)CSc1nc2ccccc2[nH]1` it was > 4 mM (inactive). For the compound `Cc1nnc(SCC(=O)NC2CCCC2)[nH]c1=O`, the Kd is > 4 mM (inactive). `CC1CCCN(C/C(O)=C(\C#N)c2nc3ccccc3[nH]2)C1` (centres undefined): the Kd was > 4 mM (inactive). Consider `COc1cc(C)nc(N(CCO)CCO)n1`, for which the Kd was > 4 mM (inactive).
